Experiments:
[1] = target: T1, TNKS2 (Homo sapiens, UniProt Q9H2K2); test: TNKS2 Assay B (auto-parsylation, [3H]-NAD+ SPA); format: biochemical; details: 6 nM TNKS2, auto-parsylation, over night at room temperature
T1 construct: purchased BPS Bioscience, San Diego, USA 80572 (TNKS2 Histone Ribosylation Assay Kit)
T1 sequence (Q9H2K2 1-1166): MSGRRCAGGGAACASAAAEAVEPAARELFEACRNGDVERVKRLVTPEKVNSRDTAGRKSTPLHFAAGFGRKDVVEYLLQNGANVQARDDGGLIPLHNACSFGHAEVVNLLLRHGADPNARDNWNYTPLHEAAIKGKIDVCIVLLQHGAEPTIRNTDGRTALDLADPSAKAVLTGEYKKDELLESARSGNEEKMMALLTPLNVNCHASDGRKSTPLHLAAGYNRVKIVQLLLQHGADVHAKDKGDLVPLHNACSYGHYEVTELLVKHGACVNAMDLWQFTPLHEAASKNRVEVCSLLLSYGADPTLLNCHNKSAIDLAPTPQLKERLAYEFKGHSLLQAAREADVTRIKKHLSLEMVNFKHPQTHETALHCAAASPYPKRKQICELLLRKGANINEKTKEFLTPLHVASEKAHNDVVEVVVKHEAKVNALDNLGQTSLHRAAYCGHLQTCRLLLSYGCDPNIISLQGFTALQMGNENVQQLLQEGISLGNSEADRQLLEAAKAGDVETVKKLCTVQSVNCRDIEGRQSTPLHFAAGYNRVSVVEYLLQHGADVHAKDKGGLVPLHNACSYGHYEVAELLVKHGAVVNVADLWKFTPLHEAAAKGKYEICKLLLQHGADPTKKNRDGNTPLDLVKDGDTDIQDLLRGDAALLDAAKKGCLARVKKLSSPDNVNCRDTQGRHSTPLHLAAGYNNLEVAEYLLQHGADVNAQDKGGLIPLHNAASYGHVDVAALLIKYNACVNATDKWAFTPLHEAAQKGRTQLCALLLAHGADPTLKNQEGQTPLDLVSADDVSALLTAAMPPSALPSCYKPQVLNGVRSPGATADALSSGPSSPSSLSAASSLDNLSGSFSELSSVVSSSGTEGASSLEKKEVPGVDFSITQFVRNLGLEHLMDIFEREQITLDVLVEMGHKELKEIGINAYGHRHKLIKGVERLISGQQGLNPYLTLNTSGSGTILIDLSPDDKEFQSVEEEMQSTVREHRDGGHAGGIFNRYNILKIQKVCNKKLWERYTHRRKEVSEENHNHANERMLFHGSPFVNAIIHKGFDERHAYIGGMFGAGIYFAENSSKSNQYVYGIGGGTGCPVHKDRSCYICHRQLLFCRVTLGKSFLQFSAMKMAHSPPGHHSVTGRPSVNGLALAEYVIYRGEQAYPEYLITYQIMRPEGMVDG

[2] = test system: wildtype Wnt signaling cascade; test: HEK293 TOP assay (Super TopFlash luciferase reporter, Wnt-3a stimulated); format: cell-based; details: Homo sapiens, HEK293 TOP reporter cells, Wnt3a at EC50, 16 hours
Procedure, shortened: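 Compound series (50 μM down to 15 nM, 3.16-fold) diluted from DMSO 50-fold into CAFTY buffer, pH 7.4, 2 mM Ca^2+, 0.01% BSA, applied to Wnt-3a-stimulated HEK293 TopFlash and FOP reporter lines in parallel. Cells seeded 10000/well 24 h before; luciferase signal measured.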

[3] = test system: HEK293 cells cotransfected with the FOP control vector; test: HEK293 FOP assay (control reporter with non-functional TCF elements); format: cell-based; details: Homo sapiens, 16 hours
Procedure, shortened: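 Compound series from 50 μM down to 15 nM, prediluted in DMSO then 50-fold into CAFTY buffer (pH 7.4, 2 mM Ca2+, 0.01% BSA), tested alongside TOP cells on a Geneticin-selected HEK293 FOP line whose TCF elements are replaced by a random sequence; recombinant human Wnt-3a applied at 2500-5 ng/ml.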

Compound | IC50 [1] [nM] | IC50 ([2]; HEK293, 16 h) [nM] | IC50 [3] [nM] | IC50 [2] [nM]
CC(C)n1nc(C(=O)N[C@H]2CC[C@@]3(CCN(c4ccc(F)cc4Cl)C3=O)CC2)c2ccc(Br)cc21 [Example 319, 6-bromo-N-[(trans)-2-(2-chloro-4-fluorophenyl)-1-oxo-2-azaspiro[4.5]dec-8-yl]-1-isopropyl-1H-indazole-3-carboxamide] | > 10000 | – | ≥ 50000 | ≥ 50000
NC(=O)c1nc[nH]c1C(=O)N[C@H]1CC[C@@]2(CCCN(c3cc(F)c(F)cc3Cl)C2=O)CC1 [Example 320, N^5-[(trans)-2-(2-chloro-4,5-difluorophenyl)-1-oxo-2-azaspiro[5.5]undec-9-yl]-1H-imidazole-4,5-dicarboxamide] | 9.4 | 27 | ≥ 50000 | –
O=C(N[C@H]1CC[C@@]2(CCCN(c3cc(F)c(F)cc3Cl)C2=O)CC1)c1[nH]cnc1C(=O)N1CC(OC(F)F)C1 [Example 322, N-[(trans)-2-(2-chloro-4,5-difluorophenyl)-1-oxo-2-azaspiro[5.5]undec-9-yl]-4-{[3-(difluoromethoxy)azetidin-1-yl]carbonyl}-1H-imidazole-5-carboxamide] | 12 | 1.4 | 21000 | –
O=C(N[C@H]1CC[C@@]2(CCCN(c3cc(F)c(F)cc3Cl)C2=O)CC1)c1[nH]cnc1C(=O)N1CCOCC1 [Example 323, N-[(trans)-2-(2-chloro-4,5-difluorophenyl)-1-oxo-2-azaspiro[5.5]undec-9-yl]-4-(morpholin-4-ylcarbonyl)-1H-imidazole-5-carboxamide] | 930 | 97 | ≥ 50000 | –
O=C(NC1CC1)c1nc[nH]c1C(=O)N[C@H]1CC[C@@]2(CCCN(c3cc(F)c(F)cc3Cl)C2=O)CC1 [Example 324, N^5-[(trans)-2-(2-chloro-4,5-difluorophenyl)-1-oxo-2-azaspiro[5.5]undec-9-yl]-N^4-cyclopropyl-1H-imidazole-4,5-dicarboxamide] | 19 | 3 | ≥ 500 | –
O=C(N[C@H]1CC[C@@]2(CCCN(c3ccc(F)cc3Cl)C2=O)CC1)c1cnn2cccnc12 [Example 325, N-[(trans)-2-(2-chloro-4-fluorophenyl)-1-oxo-2-azaspiro[5.5]undec-9-yl]pyrazolo[1,5-a]pyrimidine-3-carboxamide] | 100 | 23 | ≥ 50000 | –
O=C(N[C@H]1CC[C@@]2(CCCN(c3ccc(F)cc3Cl)C2=O)CC1)c1cnc2cccnn12 [Example 326, N-[(trans)-2-(2-chloro-4-fluorophenyl)-1-oxo-2-azaspiro[5.5]undec-9-yl]imidazo[1,2-b]pyridazine-3-carboxamide] | 180 | 60 | ≥ 50000 | –
O=C(N[C@H]1CC[C@@]2(CCN(c3ccc(F)cc3Cl)C2=O)CC1)c1cnn2ccc(C(F)F)nc12 [Example 330, N-[(trans)-2-(2-chloro-4-fluorophenyl)-1-oxo-2-azaspiro[4.5]dec-8-yl]-5-(difluoromethyl)pyrazolo[1,5-a]pyrimidine-3-carboxamide] | 11 | 5 | 30000 | –
O=C(N[C@H]1CC[C@@]2(CCN(c3ccc(F)cc3Cl)C2=O)CC1)c1cnn2c(C(F)F)cc(C(F)F)nc12 [Example 331, N-[(trans)-2-(2-chloro-4-fluorophenyl)-1-oxo-2-azaspiro[4.5]dec-8-yl]-5,7-bis(difluoromethyl)pyrazolo[1,5-a]pyrimidine-3-carboxamide] | 76 | 6.5 | 30000 | –
O=C(N[C@H]1CC[C@]2(CCN(c3ccc(F)cc3Cl)C2=O)CC1)c1c[nH]c2cccnc12 [Example 332, N-[(cis)-2-(2-chloro-4-fluorophenyl)-1-oxo-2-azaspiro[4.5]dec-8-yl]-1H-pyrrolo[3,2-b]pyridine-3-carboxamide] | 4700 | 570 | 35000 | –
Cc1cc(C(F)F)n2ncc(C(=O)N[C@H]3CC[C@]4(CCN(c5ccc(F)cc5Cl)C4=O)CC3)c2n1 [Example 333, N-[(cis)-2-(2-chloro-4-fluorophenyl)-1-oxo-2-azaspiro[4.5]dec-8-yl]-7-(difluoromethyl)-5-methylpyrazolo[1,5-a]pyrimidine-3-carboxamide] | 670 | 55 | 30000 | –
Cc1ccn2ncc(C(=O)N[C@H]3CC[C@]4(CCN(c5ccc(F)cc5Cl)C4=O)CC3)c2n1 [Example 335, N-[(cis)-2-(2-chloro-4-fluorophenyl)-1-oxo-2-azaspiro[4.5]dec-8-yl]-5-methylpyrazolo[1,5-a]pyrimidine-3-carboxamide] | > 10000 | 650 | ≥ 50000 | –
Cc1ccnc2c(C(=O)N[C@H]3CC[C@]4(CCN(c5ccc(F)cc5Cl)C4=O)CC3)cnn12 [Example 336, N-[(cis)-2-(2-chloro-4-fluorophenyl)-1-oxo-2-azaspiro[4.5]dec-8-yl]-7-methylpyrazolo[1,5-a]pyrimidine-3-carboxamide] | 870 | 54 | ≥ 50000 | –

The next lines start with results.

IC50 [1] [nM] | IC50 ([2]; HEK293, 16 h) [nM] | Compound | IC50 [3] [nM] | IC50 [2] [nM]
8.7 | 1.4 | CNC(=O)c1nc[nH]c1C(=O)N[C@H]1CC[C@@]2(CCCN(c3cc(F)c(F)cc3Cl)C2=O)CC1 [Example 317, N^5-[(trans)-2-(2-chloro-4,5-difluorophenyl)-1-oxo-2-azaspiro[5.5]undec-9-yl]-N^4-methyl-1H-imidazole-4,5-dicarboxamide] | ≥ 500 | –
8.7 | 2 | CCNC(=O)c1nc[nH]c1C(=O)N[C@H]1CC[C@@]2(CCCN(c3cc(F)c(F)cc3Cl)C2=O)CC1 [Example 318, N^5-[(trans)-2-(2-chloro-4,5-difluorophenyl)-1-oxo-2-azaspiro[5.5]undec-9-yl]-N^4-ethyl-1H-imidazole-4,5-dicarboxamide] | ≥ 500 | –
52 | 6 | CC(C)NC(=O)c1nc[nH]c1C(=O)N[C@H]1CC[C@@]2(CCCN(c3cc(F)c(F)cc3Cl)C2=O)CC1 [Example 321, N^5-[(trans)-2-(2-chloro-4,5-difluorophenyl)-1-oxo-2-azaspiro[5.5]undec-9-yl]-N^4-(propan-2-yl)-1H-imidazole-4,5-dicarboxamide] | 24000 | –
29 | 7 | O=C(N[C@H]1CC[C@@]2(CCCN(c3ccc(F)cc3Cl)C2=O)CC1)c1[nH]cnc1C(=O)N1CC(F)C1 [Example 327, N-[(trans)-2-(2-chloro-4-fluorophenyl)-1-oxo-2-azaspiro[5.5]undec-9-yl]-4-[(3-fluoroazetidin-1-yl)carbonyl]-1H-imidazole-5-carboxamide] | 31000 | –
75 | 50 | O=C(NC1CC1)c1nc[nH]c1C(=O)N[C@H]1CC[C@@]2(CCCN(c3ccc(F)cc3Cl)C2=O)CC1 [Example 328, N^5-[(trans)-2-(2-chloro-4-fluorophenyl)-1-oxo-2-azaspiro[5.5]undec-9-yl]-N^4-cyclopropyl-1H-imidazole-4,5-dicarboxamide] | 27000 | –
160 | 260 | CC(C)NC(=O)c1nc[nH]c1C(=O)N[C@H]1CC[C@@]2(CCCN(c3ccc(F)cc3Cl)C2=O)CC1 [Example 329, N^5-[(trans)-2-(2-chloro-4-fluorophenyl)-1-oxo-2-azaspiro[5.5]undec-9-yl]-N^4-(propan-2-yl)-1H-imidazole-4,5-dicarboxamide] | 40000 | –

From patent US20180148418A1, “AMIDO-SUBSTITUTED CYCLOHEXANE DERIVATIVES” (Bayer Pharma Aktiengesellschaft, priority 2015, published 2018)
